# In patent US6593275B1, “Use of prolines for improving growth and other properties of plants and algae” (The Regents of the University of California, priority 2000, dated 2003):
# Values joined by “and” are separate entries in the source; they are usually repeats but may differ in a detail not shown here. Equal values may be shown once. Marks after values point to notes of the source that are not given here.
# How the values were obtained:
# oat plants [1] = assay: Root treatment of oats; effects of increasing leaf/root GS ratio on growth and leaf 2-hydroxy-5-oxoproline; assay type: in vivo; settings: for Whole Plant Fresh Weight (FWT): oats, compound delivered to the roots, controls 14.95; for 2-Hydroxy-5-oxoproline in Leaf: treated oats, controls 4.9
# Experimental: (§1) Having generally described the invention, the following EXAMPLES provide additional details of the effects of the metabolite, 2-hydroxy-5-oxoproline and other prolines on plant properties. In the EXAMPLES, the concentration of 2-hydroxy-5-oxoproline in plant leaves was determined by extracting the 2-hydroxy-5-oxoproline into acidified water from a known weight of fresh leaf tissue. The sampled leaves were fully extended and photosynthetically active. The amount of 2-hydroxy-5-oxoproline was measured using a high-performance liquid chromatograph fitted with an optical detector (210 nm) and a column packed with a sulfonated polystyrene di-vinyl benzene polymer suitable for ion-exclusion chromatography of Kreb cycle intermediates. The metabolite was eluted with 0.01N H2SO4 in water. The chromatograph peak corresponding to 2-hydroxy-5-oxoproline was identified by the known column retention time of 2-hydroxy-5-oxoproline. A standard curve was prepared using chemically synthesized 2-hydroxy-5-oxoproline (structure confirmed using 13-C nuclear magnetic resonance) and varying the amount of this standard injected into the system. The area integrated under the peak was correlated with the known amount of standard injected into the chromatograph. The amount of 2-hydroxy-5-oxoproline in leaf tissue samples could then be quantitatively determined from the area under the appropriate peak.
# (§2) Also in the EXAMPLES, plants were grown at 73° F. with 16 h length days and 8 h length nights. Fluorescent lights were supplemented with incandescent bulbs to generate intensities of 1760, 980 or 360 microeinsteins per meter squared per second as indicated in the EXAMPLES. Plants were grown in a standard potting mixture of peat moss, vermiculite and perlite, and nutrients were supplied by watering daily with the commonly used Hoagland's plant nutrient solution which contains an array of known plant nutrients and is considered to be appropriate to meet the nutrient needs of plants as they normally receive them from soil.
# (§3) TABLE 5 and FIG. 3 hereof show the results of increasing the ratio of leaf/root GS activity on plant growth and on the concentration of 2-hydroxy-5-oxoproline in the leaves of oat plants treated with a compound (tabtoxinine-β-lactam) that binds to glutamine synthetase and impairs the normal destruction of this enzyme, thereby causing the leaf GS activity to increase while the root GS activity decreases. (For methodology, see, e.g., T. Knight, D. Bush, and P. Langston-Unkefer, Plant Physiol. 88, 333 (1988)). The compound (Tabtoxinine-β-lactam) was delivered to the roots. […] The level of 2-hydroxy-5-oxoproline was also observed to increase in the leaves of these plants as a consequence of the increased leaf/root GS activity ratio.
# lettuce = assay: Weekly foliar treatment of lettuce with 2-hydroxy-5-oxoproline; assay type: in vivo
# Experimental: as §1, §2
# The fresh weight, dry weight, percent dry weight, 2-hydroxy-5-oxoproline concentration in the leaves, and the CO2 fixation rates are all increased in the treated plants. The greater dry weight percent increases the value of these plants and that of algae as fuel because the increase provides a greater amount of combustible material per gram of fresh weight (that is, a greater amount of carbon was fixed by the plant), and because an increase in dry weight percent reduces the water content in the fuel which is an energy cost when the fuel is combusted. It also increases the value of these plants as sources of biomass suitable for conversion to other products such as chemicals, liquid fuels, or hydrogen, to name a few examples. Treatments were applied weekly to the foliar parts of the plants using an air brush until approximately 20% drip. The aqueous treatment solution contained 2-hydroxy-5-oxoproline (10 mg/liter) in 0.07% sodium laurel sulfate, and 1.2% glycerol at a pH of 6.3. The plants were harvested at 63 days of age after 7 treatments; the harvest was made 7 days after the last treatment. These plants were provided Hoagland's plant nutrient solution to their roots and grown under light intensity of […] microeinsteins.
# At harvest (63 days of age) none of the 12 control plants had emerged flowering structures, whereas 6 of the 12 treated plants had well-developed flowering structures.
# glutamine synthetase = assay: Glutamine synthetase activity in leaf and root of treated oats (transferase assay); assay type: in vivo; settings: for GS Activity, Leaf: leaf of treated oats, controls 10.5; for GS Activity, Root: root of treated oats, controls 7.8; for Leaf/Root GS Activity Ratio: treated oats, controls 1.35
# Experimental: Glutamine synthetase activity was measured using the transferase assay as described in “Glutamine Synthetase (E. coli)” by B. Shapiro and E. Stadtman, Meth. Enzym. 17A, 910 (1970). The GS activity is expressed in micromoles per gram of fresh weight of tissue per minute.
# as §3
# Tomato-Halley 3155 = assay: Multiple foliar treatment of tomato; assay type: in vivo; settings: 24 days old, 5 weekly treatments, untreated 11.97
# Experimental: (§4) TABLE 7 and TABLE 8 show the results when commercial vegetables such as cantaloupe, and tomatoes, and a crop such as cotton were tested for the effects of the metabolite on their growth rates. These plants received one foliar application of 2-hydroxy-5-oxoproline as young seedlings. These plants grew more rapidly as determined by either fresh weight or leaf length. The cantaloupe and cotton seedlings were harvested and their fresh weight was determined.
# ** Plants were 24 days old and treated plants had received 5 weekly treatments.
# Chlorella sorokinian = assay: Growth rate of algae with 2-hydroxy-5-oxoproline in growth medium; assay type: cell-based; settings: treated algae, CO2 sole carbon source; untreated approximately 60 h
# Experimental: The growth rate of algae, Chlorella sorokinian (obtained from the American Type Culture Collection), was increased when 2-hydroxy-5-oxoproline was added to the growth medium. The mass accumulation growth curve for this single-cell photosynthetic organism is described as a sigmoidal function. […] This reflects substantially accelerated growth for the treated algae cultures when compared with untreated cultures. The growth medium for algae growth is described in Biotechnology & Bioengineering Vol. IV by Daboll et al., pages 281-297 (1962). Carbon dioxide was provided as the sole carbon source and was allowed to sparge into the cultures of both treated and untreated cultures. The light source supplied approximately 980 ft candles. Media pH was initially adjusted to 8.0 using either NaOH or HCl, and subsequently maintained at pH 7.0 by controlling the introduction of CO2.
# [2] = tested on: oat plants (commercial cultivar Lodi); assay: Daily root treatment of oats with 2-hydroxy-5-oxoproline; assay type: in vivo
# Experimental: as §1
# Also in the EXAMPLES, plants were grown at 73° F. with 16 h length days and 8 h length nights. […]
# The treatment was commenced when the seedlings were 7 days old and continued for 56 days; the 2-hydroxy-5-oxoproline was supplied daily to their roots as 50 ml of between 0.5 to 50 μM solutions of 2-hydroxy-5-oxoproline in Hoagland's plant nutrient solution having a pH of 6.3. […] When the amount of dry weight was expressed as a function of fresh weight, the percent dry weight of the treated plants ranged from 8.1 to 8.4% when compared with 7.6% for untreated control plants. […]
# [3] = tested on: alfalfa commercial cultivar Saranac; assay: Daily root treatment of alfalfa: growth, nodulation and flowering; assay type: in vivo
# Experimental: as §2
# Growth and nodulation were improved by the treatment. The alfalfa commercial cultivar Saranac, was grown as described hereinabove using 1760 microeinsteins per meter squared per second as the light intensity, and watered daily with quarter-strength Hoagland's plant nutrient solution that had been modified to replace the nitrogen (nitrate) with chloride in the solution. Nodulating alfalfa seedlings were treated beginning at about 4 days of age, with the same quantity of 2-hydroxy-5-oxoproline as described in EXAMPLE 1 for plants receiving the 2-hydroxy-5-oxoproline through their roots.
# The time to flowering or emergence of seed structures of treated daily and untreated plants was tracked in alfalfa and oats.
# Cantaloupe-Imperial = assay: Single foliar treatment of cantaloupe seedlings; assay type: in vivo; settings: 16 days old, harvested 9 day after a single treatment, untreated 0.85
# Experimental: as §4
# (§5) *Plants were 16 days old and were harvested 9 day after the treated plants had received a single treatment.
# [4] = tested on: wildtype oats (commercial cultivar Lodi); assay: Daily root treatment of oats; selection of responders by CO2 fixation rate and tillers; assay type: in vivo
# Experimental: Oats were treated with 2-hydroxy-5-oxoproline through their roots as described in EXAMPLE 1. Individual plants that responded to the increased level of 2-hydroxy-5-oxoproline were identified by measuring the rate of CO2 fixation using a CO2 fixation meter at the maximum light intensity for photosynthetic carbon dioxide fixation of 2000 microeinsteins per meter squared per second. The rates were measured in the leaves of treated plants on two successive days and the plants were allowed to mature and produce seed.
# Cotton-Pima = assay: Single foliar treatment of cotton seedlings; assay type: in vivo; settings: 16 days old, harvested 9 day after a single treatment, untreated 1.27
# Experimental: as §4, §5
# [5] = tested on: Switchgrass (commercial cultivar Alamo); assay: Daily root treatment of switchgrass; assay type: in vivo
# Experimental: as §2
# Average fresh weight of the foliar part of the plants was 115% of that for the control plants.
# thrip = assay: Thrip infestation of alfalfa plants with elevated 2-hydroxy-5-oxoproline; assay type: in vivo; settings: of 80 plants, one week after initial exposure; controls 15 of 80
# Text: Thrip infestation of plants having increased 2-hydroxy-5-oxoproline concentration was compared with that of control plants having a normal level of 2-hydroxy-5-oxoproline in their leaves. Control (80 plants) and plants with elevated levels of 2-hydroxy-5-oxoproline (80 plants) were subjected to thrip infestation; these two sets of plants were randomly intermingled in the greenhouse to assure equal exposure to the pest. Of the set of control plants, 15 were infested with thrip while only 11 of the other set of plants were infested with thrip one week after initial exposure to the pests. The light intensity for growth was approximately 1760 microeinsteins per meter squared per second.
# oat plants [6] = assay: Foliar treatment of oats with 5-oxoproline; assay type: in vivo; settings: oats harvested 17 days after single foliar treatment, 40.5 mg per milliliter, 1% dimethylsulfoxide, pH 6.3
# Experimental: A solution containing 40.5 mg per milliliter of 2-pyrrolidone-5-carboxylic acid and 1% dimethylsulfoxide in water at a pH of 6.3 was applied, but other solutions of this compound were also found to be effective. These plants were grown under lights of 980 microeinsteins per meter squared per second and the treatment was applied to their foliar parts.
# [7] = lettuce, harvest at 63 days, control 100%
# [8] = alfalfa, daily root treatment (soil), controls 100
# [9] = individual treated oat plants, non-responders
compound,measurement,setting,value
O=C1CC[C@@](O)(C(=O)O)N1 [2-hydroxy-5-oxoproline],Whole Plant Fresh Weight (FWT),oat plants [1],18.07 g
same,2-Hydroxy-5-oxoproline in Leaf,oat plants [1],7.04 micromoles/g FWT
same,CO2 Fixation Rate,"lettuce; 34 day-old lettuce plants, control 6.6",9.0 micromoles CO2 fixed/m^2/sec
same,CO2 Fixation Rate,"lettuce; 57 day-old lettuce plants, control 6.9",9.6 micromoles CO2 fixed/m^2/sec
same,Whole Plant Fresh Weight (FWT),"lettuce; lettuce, 7 weekly foliar treatments 10 mg/liter, harvest at 63 days, control 55.3",65.2 g
same,Whole Plant Dry Weight (DW),"lettuce; lettuce, harvest at 63 days, control 4.00",6.35 g
same,"Whole Plant Dry Weight, percent of control",lettuce; [7],159%
same,"Whole Plant Fresh Weight, percent of control",lettuce; [7],118%
same,2-Hydroxy-5-oxoproline Concentration in Leaf,"lettuce; lettuce, weekly foliar treatment, control 6.25",13.37 micromoles/gFWT
same,"2-Hydroxy-5-oxoproline Concentration in Leaf, percent of control","lettuce; lettuce, control 100%",212%
same,number of plants with well-developed flowering structures,"lettuce; of the 12 treated lettuce plants at harvest (63 days of age), none of 12 controls",6
same,"GS Activity, Leaf",glutamine synthetase,Leaf: 16.9 micromoles/g FWT/min
same,"GS Activity, Root",glutamine synthetase,Root: 6.4 micromoles/g FWT/min
same,Leaf/Root GS Activity Ratio,glutamine synthetase,2.64
same,"Foliar Fresh Weight, Treated plants",Tomato-Halley 3155,19.08** g
same,time to reach the mid-log phase of growth,Chlorella sorokinian,approximately 40 h
same,seed structures displayed earlier than untreated control plants,[2]; oats treated daily,3 to 5 days
same,2-Hydroxy-5-oxoproline Concentration in Leaf,"[2]; oats, daily root treatment, control 4.9",7.0 micromoles/gFWT
same,Whole Plant Fresh Weight (FWT),"[2]; oats, roots treated daily for 56 days with 50 ml of 0.5 to 50 μM solution, control 14.95",18.06 g
same,flowered sooner than untreated plants,[3]; alfalfa treated daily,2 to 5 days
same,Nodule number/plant (%),[3]; [8],214%
same,Nodule weight/plant (%),[3]; [8],165%
same,Whole plant Fresh weight (%),[3]; [8],145%
same,"Foliar Fresh Weight, Treated plants",Cantaloupe-Imperial,1.55* g
same,Number of Tillers in Mature Plant,"[4]; average of non-responders, average of untreated plants 13.7",14.0
same,CO2 fixation Rate as Differential CO2 Concentration,"[4]; average of non-responders, average of untreated plants 18.2",18.2 ppm
same,Number of Tillers in Mature Plant,"[4]; average of responders, average of untreated plants 13.7",17.0
same,CO2 fixation Rate as Differential CO2 Concentration,"[4]; average of responders, average of untreated plants 18.2",25.3 ppm
same,CO2 fixation Rate as Differential CO2 Concentration,[4]; [9],19.9 ppm and 19.6 ppm and 17.2 ppm and 16.1 ppm
same,Number of Tillers in Mature Plant,[4]; [9],14 (2×) and 13 and 15
same,Number of Tillers in Mature Plant,"[4]; individual treated oat plants, responders",21 (2×) and 19 and 12 and 15 and 17 (3×) and 13 and 18
same,CO2 fixation Rate as Differential CO2 Concentration,"[4]; individual treated oat plants, responders, light 2000 microeinsteins",25.2 ppm and 24.5 ppm and 24.2 ppm (2×) and 23.6 ppm and 23.2 ppm and 28.9 ppm and 28.0 ppm and 25.9 ppm and 25.3 ppm
same,"Foliar Fresh Weight, Treated plants",Cotton-Pima,1.85* g
same,"Average fresh weight of the foliar part, percent of control plants","[5]; switchgrass, daily root treatment",115%
same,"dry weight per unit of fresh weight, foliar parts","[5]; treated switchgrass, untreated 14.9%",16.5%
same,"dry weight per unit of fresh weight, roots","[5]; treated switchgrass, untreated 16.7%",12.05%
same,emergence of 3rd and 4th leaves (FIG. 4),"[5]; treated versus control switchgrass, as a function of time",consistently emerged leaves sooner than did the control plants
same,number of plants infested with thrip,thrip,11
"O=C1CCC(C(=O)O)N1 (centres unmarked) [5-oxoproline, 2-pyrrolidone-5-carboxylic acid]","fresh foliar weight, percent of untreated control plants",oat plants [6],126%
"N[C@@H](CC[C@]1(O)CNC1=O)C(=O)O [Tabtoxinine-β-lactam, tabtoxinine-β-lactam, reference compound]",Whole Plant Fresh Weight (FWT),oat plants [1],24.6 g
same,2-Hydroxy-5-oxoproline in Leaf,oat plants [1],16.6 micromoles/g FWT
same,"GS Activity, Leaf",glutamine synthetase,Leaf: 25.9 micromoles/g FWT/min
same,"GS Activity, Root",glutamine synthetase,Root: 3.9 micromoles/g FWT/min
same,Leaf/Root GS Activity Ratio,glutamine synthetase,6.6
